According to patent publication US20210261475A1, “UREA-BASED COMPOSITION COMPRISING ELEMENTAL SULPHUR AND METHOD FOR THE MANUFACTURE THEREOF” (YARA INTERNATIONAL ASA, priority 2018, published 2021):
Entries after “also recorded” stand apart in the source; their conditions may differ.

Experiments:
Format in all cases: physicochemical
[1] = Volatilization measurements (ammonia release, 2 L diffusion kit, Draeger tube); settings: YaraVera Amidas product comprising 462 ppm nBTPT, treated with stabilizer (FIG. 1, Table 1)
Excerpt: Through the lid, a […] tube is placed for the measurement of vol % ammonia. The […] tube turns from yellow to bleu/purple when ammonia is absorbed by the tube. The amount of vol % ammonia released can be followed in time. Experiment 1 defines the problem.

[2] = nBTPT stability on YaraVera Amidas (UAS) product during storage, HPLC analysis of nBTPT content
Protocol: For lab scale experiments, 1.2 kg of solid fertilizer material was added to a lab scale drum. […] A residence time of 10 minutes was applied and the rotating speed of the drum was consequently the same in each experiment. […] Before use, the moisture-repellent coating was preheated to 80° C. Larger scale experiments with amounts up to 40 kg of fertilizer material were performed in a concrete mixer. The samples were stored under several conditions, dependent on the type of samples: • Bagged at room temperature (18-25° C.) • Bagged at 40° C. • Open to air at room temperature (18-25° C.) […]

[3] = pH of MgSO4 grades

[O]=[Mg] [MgO, magnesium oxide, reference compound]
Ammonia release [1]: producing ammonia | Stability of nBTPT (stabilizing effect) ([2]; YaraVera Amidas with 462 ppm nBTPT, MgSO4/MgO combinations (FIG. 4)): more effective than CaO

O=S(=O)([O-])[O-].[Mg+2] [MgSO4 99.999%]
pH [3]: 6.1

O=S(=O)([O-])[O-].[Ca+2] [CaSO4]
Ammonia release [1]: no ammonia release

[O]=[Ca] [CaO, calcium oxide]
Ammonia release [1]: producing ammonia

O=S(=O)([O-])[O-].[Mg+2] [MgSO4, magnesium sulphate]
Ammonia release [1]: no ammonia release; also recorded: no ammonia is generated | Stability of nBTPT (stabilizing effect) ([2]; UAS with 462 ppm nBTPT, open to air at room temperature 40 days (FIG. 2A) and in bags at 40° C. 8 days (FIG. 2B)): comparable with the effect of the prior art compound (CaO) | Stabilizing effect ([2]; more than 1 weight % magnesium sulphate in the composition): did not produce a proportionally better stabilizing effect

O=S(=O)([O-])[O-].[Na+].[Na+] [Na2SO4, reference compound]
Stability of nBTPT (stabilizing effect) ([2]; YaraVera Amidas with 462 ppm nBTPT, open plastic containers at room temperature for 21 days (FIG. 3)): negative effect on the stability of nBTPT

O=S(=O)([O-])[O-].[Mg+2] [MgSO4 99.5%]
pH [3]: 8.5
